Reference: patent US9637491B2, “Pyrazolo[4,3-D]pyrimidines as kinase inhibitors” (Origenis GmbH, priority 2012, dated 2017)

Biological target: T1, SYK kinase (Homo sapiens, UniProt P43405)
T1 construct: purchased Invitrogen, Carlsbad
Experiment: SYK assay (OMNIA Kinase Assay, Invitrogen)
Format: biochemical
Details: SYK Activities; 1 mM ATP, 10 μM Omnia Peptide Substrate Tyr 7, 30° C.
Method: In the assay OMNIA® KINASE ASSAY by Invitrogen Corporation (Carlsbad) the effect of invention of a compound on the phosphorylation is determined by measurement of fluorescence intensity of a chelation-enhanced fluorophore called SOX. Upon phosphorylation of the peptide by the kinase of interest, Mg2+ is chelated to form a bridge between the SOX moiety and the phosphate group that is transferred to the specific tyrosine on the peptide. The fluorescence intensity is directly proportional to the amount of peptide phosphorylation.
To the wells of an 384 well small volume plate (Greiner, Frickenhausen) are added (i) the compound under test in 5% DMSO/distilled water (2 μl), (ii) 16 μl of the master mix containing ATP, DTT, Kinase Reaction Buffer, Omina Peptide Substrate Tyr 7 resulting in a final concentration of 1 mM ATP, 0.2 mM DTT and 10 μM Peptide Substrate. The Master Mix and the assay plate was incubated to reaction temperature before the measurement (30° C.). The reaction was started with addition of (iii) 2 μl 4 μg/ml SYK kinase (Invitrogen, Carlsbad). During measurement fluorescence intensitiy readings were collected using a TECAN M1000 at a wavelength of λex 360/λem 485 nm every 30 s for 30 minutes. The reaction velocity was plotted versus the inhibitor concentration to determine the IC50 using XLFit 5.0 (IDBS, Guildford) to fit to a sigmoidal dose response curve.

IC50 [nM] | SMILES
10 to 100 | CC(C)n1cc(Nc2nc(-c3cccc(NS(C)(=O)=O)c3)nc3cn[nH]c23)cn1 [Example 259, N-(3-(7-((1-isopropyl-1H-pyrazol-4-yl)amino)-1H-pyrazolo[4,3-d]pyrimidin-5-yl)phenyl)methanesulfonamide]
100 to 1000 | COCCn1cc(Nc2nc(-c3cccc(NS(C)(=O)=O)c3)nc3cn[nH]c23)cn1 [Example 265, N-(3-(7-((1-(2-methoxyethyl)-1H-pyrazol-4-yl)amino)-1H-pyrazolo[4,3-d]pyrimidin-5-yl)phenyl)methanesulfonamide]
< 10 | COCCCn1cc(Nc2nc(-c3cocn3)nc3cn[nH]c23)cn1 [Example 245, N-(1-(3-methoxypropyl)-1H-pyrazol-4-yl)-5-(oxazol-4-yl)-1H-pyrazolo[4,3-d]pyrimidin-7-amine]
100 to 1000 | CC(=O)N1CCC(n2cc(Nc3nc(-c4cocn4)nc4cn[nH]c34)cn2)CC1 [Example 130, 1-(4-(4-((5-(oxazol-4-yl)-1H-pyrazolo[4,3-d]pyrimidin-7-yl)amino)-1H-pyrazol-1-yl)piperidin-1-yl)ethan-1-one]
< 10 | c1cc(N2CCOCC2)ccc1Nc1nc(C2CC2)nc2cn[nH]c12 [Example 18, 5-cyclopropyl-N-(4-morpholinophenyl)-1H-pyrazolo[4,3-d]pyrimidin-7-amine]
10 to 100 | COCCn1cc(Nc2nc(-c3ccc4cn[nH]c4c3)nc3cn[nH]c23)cn1 [Example 131, 5-(1H-indazol-6-yl)-N-(1-(2-methoxyethyl)-1H-pyrazol-4-yl)-1H-pyrazolo[4,3-d]pyrimidin-7-amine]
< 10 | CC(=O)N1CCC(n2cc(Nc3nc(-c4ccco4)nc4cn[nH]c34)cn2)CC1 [Example 196, 1-(4-(4-((5-(furan-2-yl)-1H-pyrazolo[4,3-d]pyrimidin-7-yl)amino)-1H-pyrazol-1-yl)piperidin-1-yl)ethan-1-one]
10 to 100 | CC(C)(C)n1cc(Nc2nc(C3CC3)nc3cn[nH]c23)cn1 [Example 228, N-(1-(tert-butyl)-1H-pyrazol-4-yl)-5-cyclopropyl-1H-pyrazolo[4,3-d]pyrimidin-7-amine]
10 to 100 | c1cc(-c2nc(Nc3cnn(C4CCOCC4)c3)c3[nH]ncc3n2)co1 [Example 110, 5-(furan-3-yl)-N-(1-(tetrahydro-2H-pyran-4-yl)-1H-pyrazol-4-yl)-1H-pyrazolo[4,3-d]pyrimidin-7-amine]
100 to 1000 | CC(C(=O)O)n1cc(Nc2nc(C3CC3)nc3cn[nH]c23)cn1 (stereo not shown) [Example 504, 2-(4-((5-cyclopropyl-1H-pyrazolo[4,3-d]pyrimidin-7-yl)amino)-1H-pyrazol-1-yl)propanoic acid]
< 10 | CN1CCC(n2cc(Nc3nc(-c4ccco4)nc4cn[nH]c34)cn2)CC1 [Example 198, 5-(furan-2-yl)-N-(1-(1-methylpiperidin-4-yl)-1H-pyrazol-4-yl)-1H-pyrazolo[4,3-d]pyrimidin-7-amine]
< 10 | CC(C)(C)N1CCC(n2cc(Nc3nc(-c4ccoc4)nc4cn[nH]c34)cn2)CC1 [Example 291, N-(1-(1-(tert-butyl)piperidin-4-yl)-1H-pyrazol-4-yl)-5-(furan-3-yl)-1H-pyrazolo[4,3-d]pyrimidin-7-amine]
100 to 1000 | CC(C)(C)OC(=O)N1CCC(n2cc(Nc3nc(-c4ccco4)nc4cn[nH]c34)cn2)C1 (stereo not shown) [Example 453, tert-butyl 3-(4-((5-(furan-2-yl)-1H-pyrazolo[4,3-d]pyrimidin-7-yl)amino)-1H-pyrazol-1-yl)pyrrolidine-1-carboxylate]
10 to 100 | CN1CCC(n2cc(Nc3nc(-c4nccs4)nc4cn[nH]c34)cn2)CC1 [Example 535, N-(1-(1-methylpiperidin-4-yl)-1H-pyrazol-4-yl)-5-(thiazol-2-yl)-1H-pyrazolo[4,3-d]pyrimidin-7-amine]
100 to 1000 | COCC(COC)n1cc(Nc2nc(C3CCC3)nc3cn[nH]c23)cn1 [Example 463, 5-cyclobutyl-N-(1-(1,3-dimethoxypropan-2-yl)-1H-pyrazol-4-yl)-1H-pyrazolo[4,3-d]pyrimidin-7-amine]
10 to 100 | CC(=O)N1CCN(c2ccc(Nc3nc(C4CC4)nc4cn[nH]c34)cn2)CC1 [Example 237, 1-(4-(5-((5-cyclopropyl-1H-pyrazolo[4,3-d]pyrimidin-7-yl)amino)pyridin-2-yl)piperazin-1-yl)ethan-1-one]

The remaining lines, values behind:

SMILES | IC50 [nM]
CC(=O)N1CCN(c2ccc(Nc3nc(-c4ccco4)nc4cn[nH]c34)cc2)CC1 [Example 111, 1-(4-(4-((5-(furan-2-yl)-1H-pyrazolo[4,3-d]pyrimidin-7-yl)amino)phenyl)piperazin-1-yl)ethan-1-one] | 10 to 100
COc1ccc(Nc2nc(-c3ccccc3NS(C)(=O)=O)nc3cn[nH]c23)cc1OC [Example 2, N-(2-(7-((3,4-dimethoxyphenyl)amino)-1H-pyrazolo[4,3-d]pyrimidin-5-yl)phenyl)methanesulfonamide] | 100 to 1000
Fc1cc(Nc2nc(-c3ccno3)nc3cn[nH]c23)ccc1N1CCOCC1 [Example 70, N-(3-fluoro-4-morpholinophenyl)-5-(isoxazol-5-yl)-1H-pyrazolo[4,3-d]pyrimidin-7-amine] | 100 to 1000
Cc1nn(C(C)C)cc1Nc1nc(-c2ccoc2)nc2cn[nH]c12 [Example 292, 5-(furan-3-yl)-N-(1-isopropyl-3-methyl-1H-pyrazol-4-yl)-1H-pyrazolo[4,3-d]pyrimidin-7-amine] | 100 to 1000
COc1cc(Nc2nc(-c3cccs3)nc3cn[nH]c23)ccc1N1CCOCC1 [Example 37, N-(3-methoxy-4-morpholinophenyl)-5-(thiophen-2-yl)-1H-pyrazolo[4,3-d]pyrimidin-7-amine] | 100 to 1000
COc1ccc(Nc2nc(-c3ccon3)nc3cn[nH]c23)cc1OC [Example 73, N-(3,4-dimethoxyphenyl)-5-(isoxazol-3-yl)-1H-pyrazolo[4,3-d]pyrimidin-7-amine] | 100 to 1000
CC(C)(C)N1CCC(n2cc(Nc3nc(-c4ccc5cn[nH]c5c4)nc4cn[nH]c34)cn2)CC1 [Example 468, N-(1-(1-(tert-butyl)piperidin-4-yl)-1H-pyrazol-4-yl)-5-(1H-indazol-6-yl)-1H-pyrazolo[4,3-d]pyrimidin-7-amine] | < 10
OCCN1CCN(c2ccc(Nc3nc(-c4ccc5cn[nH]c5c4)nc4cn[nH]c34)cc2)CC1 [Example 422, 2-(4-(4-((5-(1H-indazol-6-yl)-1H-pyrazolo[4,3-d]pyrimidin-7-yl)amino)phenyl)piperazin-1-yl)ethan-1-ol] | 10 to 100
CN1CCN(C(=O)c2ccc(Nc3nc(-c4c(F)cccc4F)nc4cn[nH]c34)cc2)CC1 [Example 500, (4-((5-(2,6-difluorophenyl)-1H-pyrazolo[4,3-d]pyrimidin-7-yl)amino)phenyl)(4-methylpiperazin-1-yl)methanone] | 100 to 1000
COc1cc(Nc2nc(-c3ccccc3F)nc3cn[nH]c23)ccc1N1CCOCC1 [Example 25, 5-(2-fluorophenyl)-N-(3-methoxy-4-morpholinophenyl)-1H-pyrazolo[4,3-d]pyrimidin-7-amine] | 10 to 100
CC(=O)N1CCN(c2ccc(Nc3nc(-c4ccccc4F)nc4cn[nH]c34)cc2)CC1 [Example 26, 1-(4-(4-((5-(2-fluorophenyl)-1H-pyrazolo[4,3-d]pyrimidin-7-yl)amino)phenyl)piperazin-1-yl)ethan-1-one] | 100 to 1000
OCCN1CCN(c2ccc(Nc3nc(-c4ccoc4)nc4cn[nH]c34)cc2)CC1 [Example 442, 2-(4-(4-((5-(furan-3-yl)-1H-pyrazolo[4,3-d]pyrimidin-7-yl)amino)phenyl)piperazin-1-yl)ethan-1-ol] | 10 to 100
COc1cc(Nc2nc(-c3cccc(NS(C)(=O)=O)c3)nc3cn[nH]c23)ccc1N1CCOCC1 [Example 41, N-(3-(7-((3-methoxy-4-morpholinophenyl)amino)-1H-pyrazolo[4,3-d]pyrimidin-5-yl)phenyl)methanesulfonamide] | 100 to 1000
FC(F)(F)Cn1cc(Nc2nc(-c3ccco3)nc3cn[nH]c23)cn1 [Example 377, 5-(furan-2-yl)-N-(1-(2,2,2-trifluoroethyl)-1H-pyrazol-4-yl)-1H-pyrazolo[4,3-d]pyrimidin-7-amine] | 10 to 100
CN1CCN(c2ccc(Nc3nc(-c4ccco4)nc4cn[nH]c34)cn2)CC1 [Example 114, 5-(furan-2-yl)-N-(6-(4-methylpiperazin-1-yl)pyridin-3-yl)-1H-pyrazolo[4,3-d]pyrimidin-7-amine] | 100 to 1000
c1nn(C2CCCOC2)cc1Nc1nc(-c2ccc3cn[nH]c3c2)nc2cn[nH]c12 (stereo not shown) [Example 505, 5-(1H-indazol-6-yl)-N-(1-(tetrahydro-2H-pyran-3-yl)-1H-pyrazol-4-yl)-1H-pyrazolo[4,3-d]pyrimidin-7-amine] | 10 to 100
CN1CCN(c2ccc(Nc3nc(-c4ccc5cn[nH]c5c4)nc4cn[nH]c34)cc2CO)CC1 [Example 536, (5-((5-(1H-indazol-6-yl)-1H-pyrazolo[4,3-d]pyrimidin-7-yl)amino)-2-(4-methylpiperazin-1-yl)phenyl)methanol] | < 10
COc1cc(Nc2nc(-c3c(F)cccc3F)nc3cn[nH]c23)ccc1N1CCOCC1 [Example 12, 5-(2,6-difluorophenyl)-N-(3-methoxy-4-morpholinophenyl)-1H-pyrazolo[4,3-d]pyrimidin-7-amine] | < 10
